Source: patent publication US8975417B2, “Pyrazolopyrrolidine derivatives and their use in the treatment of disease” (Novartis AG, priority 2013, dated 2015)

Key:
[1] = biological target: nuclear BRD4-NUT foci in HCC2494 NUT midline carcinoma cells (Homo sapiens (Human), UniProt O60885+Q86Y26); assay: Nut-foci formation assay; assay type: cell-based; conditions: 24 hours, read-out: HCS Brd4-NUT IC50
Summary of the method: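 Read-out is number and intensity of nuclear NUT foci by immunofluorescence imaging, relative to 0.1% DMSO set as 100. Compounds were tested as 3-fold series starting at 10 μM on HCC2494 NUT midline carcinoma cells for 24 h. Four-parameter fitting gave IC50.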

His-Brd4(44-477) = His-Brd4(44-477) (Homo sapiens (Human), UniProt O60885); assay: TR-FRET in-vitro binding assay for BRD4; conditions: biochemical
Summary of the method: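 Assay buffer HEPES pH 7.5/NaCl/Tween20/BSA; protein solution 45 nM, peptide solution 60 nM acetyl-H4 (AcK5,8,12,16). Incubated 30 °C for 35 min; Eu-anti-His6 and SA-APC detection, TR-FRET read.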

[2] = biological target: His-CREBBP (1081-1197) bromodomain (Homo sapiens (Human), UniProt Q92793); assay: AlphaScreen in-vitro binding assay for CREBBP; conditions: biochemical
Chain of His-CREBBP (1081-1197) bromodomain (Q92793 1081-1197): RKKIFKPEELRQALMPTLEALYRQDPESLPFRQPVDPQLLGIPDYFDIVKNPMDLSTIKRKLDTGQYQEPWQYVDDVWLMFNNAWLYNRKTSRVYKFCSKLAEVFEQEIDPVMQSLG
Summary of the method: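 Ni-chelate acceptor and streptavidin donor beads (45 µg/mL each, in 50 mM HEPES pH 7.5, 150 mM NaCl, 0.02% BSA) were then added for 60 min at room temperature. IC50 came from 8-point non-linear regression.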

Structure (SMILES)	IC50 [1] [nM]	IC50 (His-Brd4(44-477)) [nM]	IC50 [2] [nM]
Cc1nn(C2CC2)c2c1C(c1ccc(Cl)cc1)N(c1ccc3nnn(C)c3n1)C2=O (stereo not drawn) [Example 102, 4-(4-chlorophenyl)-1-cyclopropyl-3-methyl-5-(3-methyl-3H-[1,2,3]triazolo[4,5-b]-pyridin-5-yl)-4,5-dihydropyrrolo[3,4-c]pyrazol-6(1H)-one]	230	59	> 37000
COc1ncc(-n2nc3c(c2C(C)C)C(c2ccc(Cl)cc2)N(c2ccc4onc(C)c4c2)C3=O)c(OC)n1 (stereo not drawn) [Example 54, 4-(4-chlorophenyl)-2-(2,4-dimethoxypyrimidin-5-yl)-3-isopropyl-5-(3-methylbenzo-[d]isoxazol-5-yl)-4,5-dihydropyrrolo[3,4-c]pyrazol-6(2H)-one]	490	260	> 37000
CC(=O)Nc1cc(N2C(=O)c3c(c(C)nn3C3CC3)C2c2ccc(Cl)cc2)nn2c(C)nnc12 (stereo not drawn) [Example 126, N-(6-(4-(4-chlorophenyl)-1-cyclopropyl-3-methyl-6-oxopyrrolo[3,4-c]pyrazol-5-(1H,4H,6H)-yl)-3-methyl-[1,2,4]triazolo[4,3-b]pyridazin-8-yl)acetamide]	587	1100	> 37000
COc1ncccc1-n1nc(C)c2c1C(=O)N(c1cc(C)c3nnc(C)n3c1)C2c1ccc(Cl)cc1 (stereo not drawn) [Example 101, 4-(4-chlorophenyl)-5-(3,8-dimethyl-[1,2,4]triazolo[4,3-a]pyridin-6-yl)-1-(2-methoxypyridin-3-yl)-3-methyl-4,5-dihydropyrrolo[3,4-c]pyrazol-6(1H)-one]	66.1	34	19000
Cc1ncccc1-n1nc(C)c2c1C(=O)N(c1cc(C)c(=O)n(C)c1)C2c1ccc(Cl)cc1 (stereo not drawn) [Example 82, 4-(4-chlorophenyl)-5-(1,5-dimethyl-6-oxo-1,6-dihydropyridin-3-yl)-3-methyl-1-(2-methylpyridin-3-yl)-4,5-dihydropyrrolo[3,4-c]pyrazol-6(1H)-one]	29.4	68	6500
CCn1nc2c(c1C)C(c1ccc(Cl)cc1)N(c1cc(C)c3nnc(C)n3c1)C2=O (stereo not drawn) [Example 115, 4-(4-chlorophenyl)-5-(3,8-dimethyl-[1,2,4]triazolo[4,3-a]pyridin-6-yl)-2-ethyl-3-methyl-4,5-dihydropyrrolo[3,4-c]pyrazol-6(2H)-one]	39.7	43	1200
CCOC(=O)N1CC(n2nc(C)c3c2C(=O)N(c2cc(C)c(=O)n(C)c2)C3c2ccc(Cl)cc2)C1 (stereo not drawn) [Example 155, Ethyl 3-(4-(4-chlorophenyl)-5-(1,5-dimethyl-6-oxo-1,6-dihydropyridin-3-yl)-3-methyl-6-oxo-5,6-dihydropyrrolo[3,4-c]pyrazol-1(4H)-yl)azetidine-1-carboxylate]	106	87	11000
Cc1cc(N2C(=O)c3nn(C4CNC4)c(C)c3C2c2ccc(Cl)cc2)cn2c(C)nnc12 (stereo not drawn) [Example 152, 2-(azetidin-3-yl)-4-(4-chlorophenyl)-5-(3,8-dimethyl-[1,2,4]triazolo[4,3-a]pyridin-6-yl)-3-methyl-4,5-dihydropyrrolo[3,4-c]pyrazol-6(2H)-one]	1350	78	3100
Cc1nn(C2CC2)c2c1C(c1ccc(C(F)(F)F)cc1)N(c1cc(C)c(=O)n(C)c1)C2=O (stereo not drawn) [Example 97, 1-cyclopropyl-5-(1,5-dimethyl-6-oxo-1,6-dihydropyridin-3-yl)-3-methyl-4-(4-(trifluoromethyl)phenyl)-4,5-dihydropyrrolo[3,4-c]pyrazol-6(1H)-one]	145	89	3600
Cc1cc(N2C(=O)c3nn(C(=O)N(C)C)c(C)c3[C@H]2c2ccc(Cl)cc2)cn2c(C)nnc12 [Example 150, (R)-4-(4-chlorophenyl)-5-(3,8-dimethyl-[1,2,4]triazolo[4,3-a]pyridin-6-yl)-N,N,3-trimethyl-6-oxo-5,6-dihydropyrrolo[3,4-c]pyrazole-2(4H)-carboxamide]	27.8	110	4600
Cc1cc(N2C(=O)c3c(c(CO)nn3C3CC3)C2c2ccc(Cl)cc2)cn2c(C)nnc12 (stereo not drawn) [Example 131, 4-(4-chlorophenyl)-1-cyclopropyl-5-(3,8-dimethyl-[1,2,4]triazolo[4,3-a]pyridin-6-yl)-3-(hydroxymethyl)-4,5-dihydropyrrolo[3,4-c]pyrazol-6(1H)-one]	27.7	36	30000
Cc1nn(C2CCC2)c2c1C(c1ccc(Cl)cc1)N(c1cc(C)c(=O)n(C)c1)C2=O (stereo not drawn) [Example 94, 4-(4-chlorophenyl)-1-cyclobutyl-5-(1,5-dimethyl-6-oxo-1,6-dihydropyridin-3-yl)-3-methyl-4,5-dihydropyrrolo[3,4-c]pyrazol-6(1H)-one]	21.9	24	650
COc1ncc(-n2nc(C)c3c2C(=O)N(c2cc(C)c(=O)n(C)c2)[C@@H]3c2ccc(Cl)cc2)c(OC)n1 [Example 100, (R)-4-(4-chlorophenyl)-1-(2,4-dimethoxypyrimidin-5-yl)-5-(1,5-dimethyl-6-oxo-1,6-dihydropyridin-3-yl)-3-methyl-4,5-dihydropyrrolo[3,4-c]pyrazol-6(1H)-one]	42.1	25	4200
COc1c2c(nn1C)C(=O)N(c1cc(C)c(=O)n(C)c1)C2c1ccc(Cl)cc1 (stereo not drawn) [Example 77, 4-(4-chlorophenyl)-5-(1,5-dimethyl-6-oxo-1,6-dihydropyridin-3-yl)-3-methoxy-2-methyl-4,5-dihydropyrrolo[3,4-c]pyrazol-6(2H)-one]	99.5	130	1900
Cc1cc(N2C(=O)c3nn(C)c(O)c3C2c2ccc(Cl)cc2)cn(C)c1=O (stereo not drawn) [Example 73, 4-(4-chlorophenyl)-5-(1,5-dimethyl-6-oxo-1,6-dihydropyridin-3-yl)-3-hydroxy-2-methyl-4,5-dihydropyrrolo[3,4-c]pyrazol-6(2H)-one]	> 10000	210	2000
CCc1nn(CCOCC(F)(F)F)c2c1C(c1ccc(Cl)cc1)N(c1cc(OC)c3nnc(C)n3c1)C2=O (stereo not drawn) [Example 108, 4-(4-chlorophenyl)-3-ethyl-5-(8-methoxy-3-methyl-[1,2,4]triazolo[4,3-a]pyridin-6-yl)-1-(2-(2,2,2-trifluoroethoxy)ethyl)-4,5-dihydropyrrolo[3,4-c]pyrazol-6(1H)-one]	635	140	> 37000
Cc1nn(C2CC2)c2c1[C@@H](c1ccc(Cl)cc1)N(c1cc(C)c(=O)n(C)c1)C2=O [Example 49, (R)-4-(4-chlorophenyl)-1-cyclopropyl-5-(1,5-dimethyl-6-oxo-1,6-dihydropyridin-3-yl)-3-methyl-4,5-dihydropyrrolo[3,4-c]pyrazol-6(1H)-one]	34.1	17	1300
CCc1c2c(nn1CCO)C(=O)N(c1cc(C)c3onc(C)c3c1)C2c1ccc(Cl)cc1 (stereo not drawn) [Example 80, 4-(4-chlorophenyl)-5-(3,7-dimethylbenzo[d]isoxazol-5-yl)-3-ethyl-2-(2-hydroxyethyl)-4,5-dihydropyrrolo[3,4-c]pyrazol-6(2H)-one]	178	35	5000
Cc1nn(C2CNC2)c2c1C(c1ccc(Cl)cc1)N(c1cc(C)c3nnc(C)n3c1)C2=O (stereo not drawn) [Example 151, 1-(azetidin-3-yl)-4-(4-chlorophenyl)-5-(3,8-dimethyl-[1,2,4]triazolo[4,3-a]pyridin-6-yl)-3-methyl-4,5-dihydropyrrolo[3,4-c]pyrazol-6(1H)-one]	554	130	> 37000
Cc1nn(C2CN(C)C2)c2c1C(c1ccc(Cl)cc1)N(c1cc(C)c(=O)n(C)c1)C2=O (stereo not drawn) [Example 140, 4-(4-chlorophenyl)-5-(1,5-dimethyl-6-oxo-1,6-dihydropyridin-3-yl)-3-methyl-1-(1-methylazetidin-3-yl)-4,5-dihydropyrrolo[3,4-c]pyrazol-6(1H)-one]	435	320	15000
Cc1nn(-c2ccnn2C)c2c1[C@H](c1ccc(Cl)cc1)N(c1cc(C)c(=O)n(C)c1)C2=O [Example 121, (S)-4-(4-chlorophenyl)-5-(1,5-dimethyl-6-oxo-1,6-dihydropyridin-3-yl)-3-methyl-1-(1-methyl-1H-pyrazol-5-yl)-4,5-dihydropyrrolo[3,4-c]pyrazol-6(1H)-one]	6110	4000	> 37000
COCc1nn(C2CC2)c2c1C(c1ccc(Cl)cc1)N(c1cc(C)c3nnc(C)n3c1)C2=O (stereo not drawn) [Example 130, 4-(4-chlorophenyl)-1-cyclopropyl-5-(3,8-dimethyl-[1,2,4]triazolo[4,3-a]pyridin-6-yl)-3-(methoxymethyl)-4,5-dihydropyrrolo[3,4-c]pyrazol-6(1H)-one]	13.9	42	19000
Cc1nn(C(=O)N(C)C)c2c1C(c1ccc(Cl)cc1)N(c1cc(C)c(=O)n(C)c1)C2=O (stereo not drawn) [Example 142, 4-(4-chlorophenyl)-5-(1,5-dimethyl-6-oxo-1,6-dihydropyridin-3-yl)-N,N,3-trimethyl-6-oxo-5,6-dihydropyrrolo[3,4-c]pyrazole-1(4H)-carboxamide]	149	190	4600
